Here are results for 13 compounds from US20030199584A1, “Reduction of hair growth” (priority 2002, published 2003).

Like-named read-outs stand apart in the source and are kept apart here.

Data set [1] in a line: In vitro diffusion (Franz) skin penetration assay, Protocol 1, 14C-DFMO through hamster skin. In kind it is in vitro ADME, Golden, Syrian hamsters. The text has this:
(§1) An in vitro diffusion assay was established based on that reported by Franz. Dorsal skin from Golden, Syrian hamsters or Hartley guinea pigs is clipped with electric clippers, trimmed to the appropriate size and placed in a glass diffusion chamber. The receptor fluid consisted of phosphate buffered saline, an isotonic solution for maintaining cell viability and 0.1% sodium azide, a preservative and was placed in the lower chamber of the diffusion apparatus such that the level of the receptor fluid was in parallel with the mounted skin. After equilibration at 37° C. for at least 30 minutes, 10 μl or 20 μl of the test or control formulation containing equal amounts of DFMO were added to the surface of the skin and gently spread over the entire surface with a glass stirring rod. A radiotracer amount of 14C-DFMO (0.5-1 microCurie per diffusion chamber) was used in the formulations to assess DFMO penetration. Penetration of DFMO was determined by removing an aliquot (400 μL) periodically throughout the course of the experiment, and quantitating radioactivity using liquid scintillation.

The nature of data set [2]: In vitro diffusion skin penetration assay of DFMO, skin species not named. The following applies: for Fold-Enhancement DDP/Control: DDP 10%; for % Applied Dose of DFMO penetrated: cream formulation 1 with or without DDP 10%. In kind it is in vitro ADME, Golden, Syrian hamsters or Hartley guinea pigs.
Description: as §1

Data set [3] is classed as in vitro ADME. The following applies: 1 %. As for the experimental part: DFMO skin penetration was assessed using a modified protocol of the Franz diffusion assay. In this experiment either the SP33 formulation (without DFMO) or the SP33 formulation prepared with dipropylene glycol dimethylether (DPGDME) again with out DFMO was applied to the skin for […]. The formulations were then removed from the skins' surfaces, which were dried with a cotton swab. The hydroalcoholic formulation 1—containing 1% DFMO with radiotracer ^14C-DFMO—was applied to the skin and gently spread over the surface with a glass, stirring rod. Aliquots of the receptor fluid were removed at 3, 6 and 24 hours after DFMO application and penetration was determined using liquid scintillation. As shown in Table 6 enhancement of DFMO penetration through the skin occurred when dipropylene glycol […] was substituted for dipropylene glycol.

Data set [4] in a line: In vitro skin penetration assay, Protocol 2 (skin pretreated 15 minutes with formulation without DFMO). The note with it: Tables 9 and 10. In kind it is in vitro ADME, Golden, Syrian hamsters or Hartley guinea pigs.
Description: as §1
This procedure is similar to that described in Protocol 1 with the exception that prior to the application of radiolabeled DFMO, the skin surfaces received 1 ml of the formulation without DFMO. After 15 minutes the formulation was removed and the surface of the skin was gently dried with a cotton swab. […]

Data set [5] in a line: DFMO skin penetration after overnight pretreatment of the skin with fatty acid. In kind it is in vitro ADME. The following applies: skin pretreated overnight; DFMO in hydroalcoholic formulation; receptor fluid measured hourly over eight hours (FIG. 1, FIG. 2).
Description: as §1
Further confirmation of the cis fatty acid action on skin penetration was obtained by pretreating the skin overnight with oleic acid or elaidic acid. The following day DFMO was applied to the surface of the skin in the hydroalcoholic formulation.

In the case of `CC12CCC(CC1)C(C)(C)O2` [Cineole, 1,8-cineole], the “Fold Enhancement of DFMO penetration” value in data set [1] (Golden Syrian, hamster, 10 %) is given as 1.91 ± .51 fold.

Take `CCCCCCCCCCCCN1CCCC1=O` [DDP, 1-dodecyl-2-pyrrolidanone]: the “Fold-Enhancement DDP/Control” value in data set [2] (2 hrs) was found to be 0.41 fold; in data set [2] (4 hrs), 0.91 fold; in data set [2] (6 hrs) it was 2.00 fold; in data set [2] (24 hrs), 5.11 fold. Further, the “% Applied Dose of DFMO penetrated” value in data set [2] (2 hrs) was 0.15 ± .01 % Applied Dose; in data set [2] (4 hrs), 0.52 ± .08 % Applied Dose; in data set [2] (6 hrs), 1.26 ± .24 % Applied Dose; in data set [2] (24 hrs), 9.31 ± 1.38 % Applied Dose. Also, the “Increase in skin penetration by DFMO” value in data set [2] (DDP 10% in cream base Formulation-1) is not above 5 fold.

Regarding `COCC(C)OCC(C)OC` (centres unmarked) [DPGDME, dipropylene glycol dimethylether], the entries for the “% Applied Dose of DFMO penetrated” value in data set [3] (3 h), in data set [3] (6 h) and in data set [3] (24 h) were 7.71 ± 3.1 % Applied Dose, 9.55 ± 3.68 % Applied Dose and 10.85 ± 3.8 % Applied Dose, respectively. The Fold-Enhancement in data set [3] (3 h) is reported as 4.64 fold; in data set [3] (6 h) it was 3.93 fold; in data set [3] (24 h), 3.02 fold.

On to `CCCCCCCCCCCCCC(=O)OC(C)C` [IPM, isopropyl myristate], for which the “Effect on penetration of DFMO through the skin (in words)” value in data set [4] is “significantly increased the penetration of DFMO through the skin”.

On to `CC(C)CCCCCCCCCCCCCCCOC(=O)CCCCCCCCCCCCCCC(C)C` [Isostearyl Isosterate, isostearyl isostearate], for which the “Effect on penetration of DFMO through the skin (in words)” value in data set [4] is “significantly increased the penetration of DFMO through the skin”.

As for `CC(C)[C@@H]1CC[C@@H](C)CC1=O` [Menthone], the “Fold Enhancement of DFMO penetration” value in data set [1] (Golden Syrian, hamster, 10 %) is 1.99 ± .40 fold.

For `CCCCCCCC/C=C\CCCCCCCC(=O)O` [Oleic Acid], the “Effect on DFMO skin penetration (in words)” value in data set [1] is “increase in skin penetration”. For the same compound, the “Fold Enhancement of DFMO penetration” value in data set [1] (Golden Syrian, hamster, 10 %) is recorded as 2.85 ± .76 fold.

On to `CCCCCCCCCCC/C=C\CCCCC(=O)O` [Petroselenic Acid], for which the “Fold Enhancement of DFMO penetration” value in data set [1] was 1.40 ± 1.5 fold.

Regarding `CCCCCCCC/C=C/CCCCCCCC(=O)O` [elaidic acid], the “Effect on DFMO skin penetration (in words)” value in data set [1] is recorded as “devoid of DFMO penetration enhancing properties”. Also, the “Enhancement of DFMO skin penetration after pretreatment” value in data set [5] is given as “no increase in skin penetration of DFMO”.

Take Capric/Caprylic Triglyceride [Captex]: the “Effect on DFMO skin penetration (in words)” value in data set [2] is on record as “increase in DFMO skin penetration”.

Regarding Tween-20, in data set [1] (Tween derivative 5% in Hydroalcoholic Formulation 1, hamster skin), the “Fold Enhancement of DFMO penetration” value was 1.54 ± .47 fold.

For Tween-40, the “Fold Enhancement of DFMO penetration” value in data set [1] is 3.07 ± 1.65 fold.

As for Tween-80, in data set [1], the “Fold Enhancement of DFMO penetration” value is 0.502 ± .14 fold and the “Reduction in DFMO penetration” value is approximately 50%.
